Source: BindingDB's records for patent US10245267 (Novartis, 2019)
pIC50: −log10 of the molar value.

What follows are compounds tested against Serine/threonine-protein kinase B-raf [V600E] (Homo sapiens, UniProt P15056, V600E) (assay: In Vitro Raf Activity).
Serine/threonine-protein kinase B-raf [V600E], sequence (P15056 2-766 V600E limits assumed): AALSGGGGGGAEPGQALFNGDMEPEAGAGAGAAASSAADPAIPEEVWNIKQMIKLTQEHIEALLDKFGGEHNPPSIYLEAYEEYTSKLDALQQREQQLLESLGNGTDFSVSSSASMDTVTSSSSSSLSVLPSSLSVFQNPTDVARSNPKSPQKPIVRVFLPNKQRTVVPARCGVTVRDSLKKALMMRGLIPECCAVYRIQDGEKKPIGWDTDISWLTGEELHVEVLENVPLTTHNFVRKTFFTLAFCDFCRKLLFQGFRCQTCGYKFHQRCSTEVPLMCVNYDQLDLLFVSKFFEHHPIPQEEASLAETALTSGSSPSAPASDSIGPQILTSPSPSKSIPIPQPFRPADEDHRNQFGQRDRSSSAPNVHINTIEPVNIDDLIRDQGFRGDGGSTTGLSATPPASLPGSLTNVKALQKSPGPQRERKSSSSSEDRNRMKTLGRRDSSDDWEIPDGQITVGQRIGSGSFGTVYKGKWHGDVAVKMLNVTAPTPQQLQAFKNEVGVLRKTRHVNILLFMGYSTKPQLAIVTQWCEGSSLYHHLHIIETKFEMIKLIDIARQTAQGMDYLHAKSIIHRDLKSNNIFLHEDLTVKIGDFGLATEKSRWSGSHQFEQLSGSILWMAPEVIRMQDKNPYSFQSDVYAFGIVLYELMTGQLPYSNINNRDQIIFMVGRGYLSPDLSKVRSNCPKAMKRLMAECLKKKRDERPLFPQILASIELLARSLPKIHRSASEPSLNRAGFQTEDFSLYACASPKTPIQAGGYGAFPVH
Experimental: The plate was incubated for 60 minutes at room temperature. […] The additions were carried out under dark conditions to protect the detection beads from light. A lid was placed on top of the plate and incubated for 1 hour at room temperature, then the luminescence was read on a PerkinElmer Envision instrument.

`Cc1ncc(NC(=O)c2ccnc(C(F)(F)F)c2)cc1-c1cnc(C(C)(C)C#N)c(N2CCOCC2)c1` [US10245267, Example 326] and `Cc1ncc(NC(=O)c2ccnc(C(F)(F)F)c2)cc1-c1cnc(CS(C)(=O)=O)c(N2CCOCC2)c1` [US10245267, Example 327] are within 0.2 log units of each other in pIC50: 8.43 for the first, 8.41 for the second.

First: Cc1ncc(NC(=O)c2cccc(C(F)F)c2)cc1-c1cc(N2CCOCC2)c2nccn2n1 [US10245267, Example 880]
Second: Cc1ncc(NC(=O)c2ccc(C#N)c(C(F)(F)F)c2)cc1-c1cc(N2CCOCC2)c2nccn2n1 [US10245267, Example 877]
The pIC50 of the first is 0.30 log units higher: 8.49 for the first, 8.19 for the second. The first is the more potent here.

First: Cc1ncc(NC(=O)c2ccnc(C(F)(F)F)c2)cc1-c1cnc(OC2CNC2)c(N2CCOCC2)c1 [US10245267, Example 325]
Second: Cc1ncc(NC(=O)c2ccnc(C(C)(C)C#N)c2)cc1-c1cc(N2CCOCC2)ncn1 [US10245267, Example 2]
The pIC50 of the first is 1.80 log units lower: 6.52 for the first, 8.32 for the second.

First: CCOc1nnc(-c2cc(NC(=O)c3ccc(CN(C)CC)c(C(F)(F)F)c3)ccc2C)cc1N1CCOCC1 [US10245267, Example 576]
Second: Cc1ncc(NC(=O)c2ccnc(C(C)(C)C#N)c2)cc1-c1cc(N2CCOCC2)c2nccn2n1 [US10245267, Example 881]
The pIC50 of the first is 0.97 log units higher: 8.46 for the first, 7.49 for the second.
